# Assay results from ChEMBL document CHEMBL1201862, “PubChem BioAssay data set” (2004).
# Calls of active or inactive are those of the source.
# Experiments:
# cells [1] = assay type: functional, cell-based
# cells [2] = assay type: functional, cell-based; remark: listed apart in the source
# [3] = molecular target: T1, Calpain-2 catalytic subunit (Sus scrofa, UniProt P43367); test: pig calpain II inhibitor potency, dose response, biochemical, fluorogenic peptide substrate (AID 1420); assay type: functional
# T1 sequence (P43367 whole entry): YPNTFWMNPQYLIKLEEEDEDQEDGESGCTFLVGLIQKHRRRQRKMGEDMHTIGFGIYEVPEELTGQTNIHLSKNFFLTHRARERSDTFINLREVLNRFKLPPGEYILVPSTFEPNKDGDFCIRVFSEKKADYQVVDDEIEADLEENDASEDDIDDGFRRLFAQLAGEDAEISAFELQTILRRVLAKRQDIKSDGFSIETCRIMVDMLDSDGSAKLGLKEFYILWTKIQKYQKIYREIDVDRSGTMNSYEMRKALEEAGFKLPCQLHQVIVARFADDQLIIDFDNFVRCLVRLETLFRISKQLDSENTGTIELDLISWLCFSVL
# [4] = inhibitors of intracellular T. cruzi replication, confirmation, NIH3T3 host cells, beta-gal luminescence (AID 2044); assay type: functional, cell-based;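 also: intracellular parasites grown in NIH/3T3 mouse fibroblasts as host cells; luminescent beta-galactosidase reporter signal from transgenic T. cruzi replicating inside host cells; inhibitors lower the luminescence signal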
# [5] = cytotoxicity toward NIH3T3 fibroblasts, dose response, counter-screen, cell-based, ATP luminescence, mouse fibroblasts (AID 2010); assay type: functional;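 also: cells exposed to compound for about 90 hours before reading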
# [6] = molecular target: T2, Heat shock factor protein 1 (Mus musculus, UniProt P38532); test: HSF1 potentiators in luciferase reporter cells, confirmation, cell-based, NIH3T3, luminescence, dose retest (AID 435004); assay type: functional;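 also: stress induced by proteasome inhibitor MG132 added 30 min after compound; luciferase reporter driven by HSF1 response element in NIH3T3 cells; actives raise luminescence as potentiators of the MG132 stress response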
# T2 sequence (P38532 whole entry): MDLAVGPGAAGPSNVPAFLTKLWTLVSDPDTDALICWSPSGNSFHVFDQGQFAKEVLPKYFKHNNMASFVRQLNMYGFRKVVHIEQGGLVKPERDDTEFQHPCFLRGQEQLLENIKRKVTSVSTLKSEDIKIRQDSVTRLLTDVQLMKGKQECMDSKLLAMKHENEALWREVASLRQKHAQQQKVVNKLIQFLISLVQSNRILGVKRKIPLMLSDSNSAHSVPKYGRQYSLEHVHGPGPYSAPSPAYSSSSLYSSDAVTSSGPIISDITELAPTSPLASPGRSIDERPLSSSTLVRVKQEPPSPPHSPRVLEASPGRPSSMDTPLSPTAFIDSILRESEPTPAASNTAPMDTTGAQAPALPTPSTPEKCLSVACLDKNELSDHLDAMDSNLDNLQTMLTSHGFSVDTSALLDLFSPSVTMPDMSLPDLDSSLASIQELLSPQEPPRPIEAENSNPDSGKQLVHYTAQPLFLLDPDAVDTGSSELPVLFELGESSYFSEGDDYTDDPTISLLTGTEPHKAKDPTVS
# Fatty acid synthase [7] = molecular target: T3, Fatty acid synthase (Homo sapiens, UniProt P49327); test: FAS thioesterase domain inhibitors, dose response, biochemical, endpoint fluorescence intensity, uHTS hits (AID 624327); assay type: functional;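 also: fluorescence from hydrolysis of an O-methyl fluorescein acyl ester substrate by the enzyme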
# Fatty acid synthase [8] = molecular target: T3, Fatty acid synthase; test: FAS thioesterase domain inhibitors, dose response, biochemical, kinetic fluorescence intensity (AID 624326); assay type: functional;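 also: rate of fluorescence rise from hydrolysis of a fluorogenic O-methyl fluorescein ester substrate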
# [9] = Luminescence Cell-Based Dose Response HTS to Identify Activators of Luciferase Translation or Activity in H4 […] Cells. [Related pubchem assays: 1829 (Project Summary), 1814 (Primary HTS)]; assay type: functional
# H4 = test: Luminescence Cell-Based Dose Response HTS to Identify Activators of 5'UTR Stem-Loop Driven Prion Protein mRNA Translation in H4 Neuroglioblastoma Cells. [Related pubchem assays: 1829 (Project Summary), 1814 (Primary HTS)]; assay type: functional; conditions: Homo sapiens
# [10] = Luminescence Cell-Based Dose Retest to Confirm Inhibitors of Cancer Stem Cells. [Related pubchem assays (depositor defined):AID2717, AID2721]; assay type: functional; conditions: Homo sapiens
# INS1 = test: beta cell apoptosis inhibitors, cytokine rescue, dose response, luminescence, retest (AID 449756); assay type: functional, cell-based; conditions: Rattus norvegicus;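 also: cell death triggered by IL-1 beta plus TNF-alpha plus IFN-gamma mixture; protective hits raise ATP signal compared with cytokine alone wells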
# [11] = molecular target: Luciferin 4-monooxygenase (Photinus pyralis, UniProt P08659); test: firefly luciferase enzyme inhibitors, dose response, biochemical, luminescence (AID 1891)
# [12] = Luminescence Cell-Based Dose Confirmation HTS to Identify Inhibitors of Platelet Dense Granule Release. [Related pubchem assays: 1663 (Primary HTS), 1678 (Summary of Project)]; assay type: functional
# Protein skinhead-1 = molecular target: T4, Protein skinhead-1 (Caenorhabditis elegans, UniProt P34707); assay type: functional
# T4 sequence (P34707 whole entry): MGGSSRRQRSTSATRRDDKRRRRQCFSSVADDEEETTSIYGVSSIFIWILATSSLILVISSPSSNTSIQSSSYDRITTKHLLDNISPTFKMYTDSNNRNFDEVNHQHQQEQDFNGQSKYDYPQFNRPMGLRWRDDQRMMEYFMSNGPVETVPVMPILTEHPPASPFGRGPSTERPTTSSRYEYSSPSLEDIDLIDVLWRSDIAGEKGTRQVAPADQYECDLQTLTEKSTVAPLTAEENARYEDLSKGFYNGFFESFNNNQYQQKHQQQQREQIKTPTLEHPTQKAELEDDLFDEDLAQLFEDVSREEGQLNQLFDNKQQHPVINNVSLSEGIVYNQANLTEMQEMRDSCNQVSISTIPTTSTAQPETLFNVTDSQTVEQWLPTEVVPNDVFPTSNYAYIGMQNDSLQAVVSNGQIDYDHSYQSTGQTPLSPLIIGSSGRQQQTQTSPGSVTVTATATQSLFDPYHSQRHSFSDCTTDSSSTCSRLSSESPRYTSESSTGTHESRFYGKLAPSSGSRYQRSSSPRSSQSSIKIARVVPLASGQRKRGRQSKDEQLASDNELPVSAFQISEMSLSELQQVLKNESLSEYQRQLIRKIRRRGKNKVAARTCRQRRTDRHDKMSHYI
# T3 sequence (P49327 whole entry, the tested form may be a part): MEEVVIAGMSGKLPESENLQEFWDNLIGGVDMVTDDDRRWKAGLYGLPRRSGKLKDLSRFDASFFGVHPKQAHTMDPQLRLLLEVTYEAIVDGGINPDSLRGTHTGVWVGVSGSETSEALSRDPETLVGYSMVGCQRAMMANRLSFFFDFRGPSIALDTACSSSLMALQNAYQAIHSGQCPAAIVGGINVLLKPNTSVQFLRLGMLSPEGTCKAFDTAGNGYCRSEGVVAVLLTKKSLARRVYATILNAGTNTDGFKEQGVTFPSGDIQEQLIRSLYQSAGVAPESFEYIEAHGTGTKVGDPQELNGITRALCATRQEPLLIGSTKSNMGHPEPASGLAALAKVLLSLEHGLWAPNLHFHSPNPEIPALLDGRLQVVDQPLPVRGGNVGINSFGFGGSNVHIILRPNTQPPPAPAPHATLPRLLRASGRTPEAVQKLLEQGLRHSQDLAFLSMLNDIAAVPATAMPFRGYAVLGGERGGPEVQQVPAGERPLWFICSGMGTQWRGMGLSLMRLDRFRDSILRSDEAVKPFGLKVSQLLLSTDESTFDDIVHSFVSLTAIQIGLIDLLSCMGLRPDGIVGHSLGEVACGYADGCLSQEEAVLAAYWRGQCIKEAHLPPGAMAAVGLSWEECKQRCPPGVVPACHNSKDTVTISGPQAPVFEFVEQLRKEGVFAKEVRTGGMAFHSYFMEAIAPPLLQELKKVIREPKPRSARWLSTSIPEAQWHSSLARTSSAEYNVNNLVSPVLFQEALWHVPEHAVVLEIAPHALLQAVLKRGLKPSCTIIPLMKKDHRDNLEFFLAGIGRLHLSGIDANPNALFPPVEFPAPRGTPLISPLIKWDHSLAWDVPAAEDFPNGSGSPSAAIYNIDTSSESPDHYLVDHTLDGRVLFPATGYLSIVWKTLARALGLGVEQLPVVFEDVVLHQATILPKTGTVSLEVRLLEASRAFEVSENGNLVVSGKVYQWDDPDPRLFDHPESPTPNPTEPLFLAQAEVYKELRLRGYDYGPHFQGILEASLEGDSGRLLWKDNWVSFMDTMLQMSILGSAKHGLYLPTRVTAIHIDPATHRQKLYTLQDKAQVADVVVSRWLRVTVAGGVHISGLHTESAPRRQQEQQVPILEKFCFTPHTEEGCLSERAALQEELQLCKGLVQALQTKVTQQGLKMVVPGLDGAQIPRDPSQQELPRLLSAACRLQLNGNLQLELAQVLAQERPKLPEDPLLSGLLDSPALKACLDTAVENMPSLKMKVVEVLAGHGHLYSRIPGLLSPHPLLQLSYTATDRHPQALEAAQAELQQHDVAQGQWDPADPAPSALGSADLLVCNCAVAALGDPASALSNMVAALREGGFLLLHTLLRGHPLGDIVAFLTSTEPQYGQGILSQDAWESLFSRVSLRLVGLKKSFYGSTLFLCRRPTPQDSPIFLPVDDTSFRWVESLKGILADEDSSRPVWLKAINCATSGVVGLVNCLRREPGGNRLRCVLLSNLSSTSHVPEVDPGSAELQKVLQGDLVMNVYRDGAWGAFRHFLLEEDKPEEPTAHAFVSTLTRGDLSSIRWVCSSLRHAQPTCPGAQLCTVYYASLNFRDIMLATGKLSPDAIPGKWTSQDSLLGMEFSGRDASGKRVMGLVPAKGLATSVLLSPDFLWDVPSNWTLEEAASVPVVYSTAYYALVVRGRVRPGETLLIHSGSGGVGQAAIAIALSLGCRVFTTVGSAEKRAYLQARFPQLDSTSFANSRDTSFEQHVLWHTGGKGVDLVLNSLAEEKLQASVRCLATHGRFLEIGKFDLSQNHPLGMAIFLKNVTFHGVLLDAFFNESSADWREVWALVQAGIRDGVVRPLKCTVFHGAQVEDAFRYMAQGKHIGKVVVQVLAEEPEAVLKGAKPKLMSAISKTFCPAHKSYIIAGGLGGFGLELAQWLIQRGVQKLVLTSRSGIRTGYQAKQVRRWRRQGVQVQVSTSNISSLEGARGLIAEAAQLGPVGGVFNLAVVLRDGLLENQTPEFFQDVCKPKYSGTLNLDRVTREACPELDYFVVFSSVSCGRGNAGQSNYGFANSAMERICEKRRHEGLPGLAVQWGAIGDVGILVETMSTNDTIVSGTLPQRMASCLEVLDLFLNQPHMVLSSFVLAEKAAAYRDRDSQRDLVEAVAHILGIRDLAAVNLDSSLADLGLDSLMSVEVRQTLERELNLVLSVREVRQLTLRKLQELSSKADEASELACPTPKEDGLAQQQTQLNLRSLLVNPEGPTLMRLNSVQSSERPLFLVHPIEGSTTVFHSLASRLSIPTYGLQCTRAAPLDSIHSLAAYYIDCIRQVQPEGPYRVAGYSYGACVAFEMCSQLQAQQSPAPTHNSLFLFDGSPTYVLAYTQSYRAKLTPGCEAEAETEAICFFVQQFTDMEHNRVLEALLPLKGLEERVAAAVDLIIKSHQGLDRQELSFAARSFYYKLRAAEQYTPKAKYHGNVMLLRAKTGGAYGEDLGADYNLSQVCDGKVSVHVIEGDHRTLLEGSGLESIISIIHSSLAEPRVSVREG
# Luciferin 4-monooxygenase, sequence (P08659 whole entry): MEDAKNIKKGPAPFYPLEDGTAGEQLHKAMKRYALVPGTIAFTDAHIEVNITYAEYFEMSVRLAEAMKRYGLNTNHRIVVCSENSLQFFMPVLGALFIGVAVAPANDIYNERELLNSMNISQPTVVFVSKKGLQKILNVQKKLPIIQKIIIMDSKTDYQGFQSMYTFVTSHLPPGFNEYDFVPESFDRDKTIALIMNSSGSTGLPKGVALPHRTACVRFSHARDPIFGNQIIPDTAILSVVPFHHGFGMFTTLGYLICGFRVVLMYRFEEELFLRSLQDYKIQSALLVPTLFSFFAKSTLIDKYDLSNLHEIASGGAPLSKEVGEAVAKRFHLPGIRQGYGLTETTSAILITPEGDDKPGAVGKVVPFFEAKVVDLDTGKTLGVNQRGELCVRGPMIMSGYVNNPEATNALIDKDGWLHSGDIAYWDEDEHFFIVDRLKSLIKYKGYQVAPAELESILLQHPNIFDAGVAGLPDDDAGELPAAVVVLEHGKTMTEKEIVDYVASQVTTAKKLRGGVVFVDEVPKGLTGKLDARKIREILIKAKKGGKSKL
smiles,measurement,setting,value
COc1cccc(C(=O)C2CCCN(Cc3ccc4nsnc4c3)C2)c1 (stereo not drawn),EC50,cells [1],> 350 µM (not active)
same,EC50,cells [2],> 350 µM (not active)
CC1CC(=O)c2cnc(NCC3CCCO3)nc2C1 (stereo not drawn),IC50,[3],6.33 µM (not active)
c1ccc(CCc2ccncc2)cc1,EC50,[4],1.52 µM (active)
same,EC50,[5],> 60 µM (not active)
same,EC50,[6],> 260 µM (inactive)
COc1ccc(C(=O)NCC(=O)OCC(=O)c2ccc3c(c2)NC(=O)CO3)cc1,EC50,[6],> 260 µM (inactive)
O=C(NNS(=O)(=O)c1ccc([N+](=O)[O-])cc1)c1ccc([N+](=O)[O-])cc1,IC50,Fatty acid synthase [7],4.95 µM (active)
same,IC50,Fatty acid synthase [8],4.24 µM (active)
ON=C1c2cc(OCCN3CCCCC3)ccc2-c2ccc(OCCN3CCCCC3)cc21,EC50,[9],> 120 µM (not active)
same,EC50,cells [1],> 350 µM (not active)
same,EC50,H4,> 120 µM (not active)
same,EC50,[4],1.43 µM (active)
same,EC50,cells [2],> 350 µM (not active)
same,EC50,[5],> 60 µM (not active)
FC(F)(F)c1cccc(N2CCN(C(S)=NC3CCCC3)CC2)c1,IC50,[3],7.79 µM (not active)
Cc1ccc(NC(=O)Cn2cnc3c(=O)n(C)c(=O)n(C)c32)c(C)c1,EC50,cells [1],> 350 µM (not active)
same,EC50,cells [2],> 350 µM (not active)
Cc1ccccc1CCN(C(=O)Cn1nnc2ccccc21)C(C(=O)NCC1CCCO1)c1nc2ccccc2n1C (stereo not drawn),IC50,[3],29.6 µM (not active)
O=C(COC(=O)c1cc([N+](=O)[O-])ccc1N1CCOCC1)Nc1c(Cl)cccc1C(F)(F)F,IC50,Fatty acid synthase [7],8.05 µM (active)
same,IC50,Fatty acid synthase [8],8.39 µM (active)
CCOC(=O)N1CCN(c2ccc(C(=O)c3cccc(F)c3)cc2)CC1,IC50,[3],14.3 µM (not active)
same,AC50,[10],3.36 µM (active)
COc1ccc(/C=C/C(=O)c2ccc([N+](=O)[O-])o2)cc1,AC50,[10],1.31 µM (active)
same,AC50,INS1,6.75 µM (active)
CCCCC(=O)OCC(=O)c1[nH]c(C)c(C(C)=O)c1C,EC50,[11],> 112 µM (not active)
same,EC50,[12],0.816 µM (active)
same,IC50,[3],21.5 µM (not active)
COC(=O)N1C(=O)[C@](CC(C)C)(c2ccccc2)N1C(=O)OC,IC50,Fatty acid synthase [7],0.544 µM (active)
same,IC50,Fatty acid synthase [8],0.385 µM (active)
COc1ccc(CCNC(=O)COC(=O)CCC(=O)c2ccc(F)cc2)cc1OC,EC50,cells [1],> 350 µM (not active)
same,EC50,cells [2],> 350 µM (not active)
C=C1CCC[C@]2(C)C[C@H]3OC(=O)C(CNC(CC)CO)[C@H]3CC12 (stereo partly drawn),EC50,[6],> 260 µM (inactive)
Cc1nc2scc(-c3ccccc3)c2c(=O)o1,IC50,Fatty acid synthase [7],5.75 µM (active)
same,IC50,Fatty acid synthase [8],80 µM (inactive)
Cc1nn(-c2ccc(F)cc2)c2sc(C(=O)N3CCCCCC3)cc12,IC50,[3],> 50 µM (not active)
same,IC50,Protein skinhead-1,> 100 µM (inactive)
COc1ccc(Nc2nc(-c3ccccc3O)nc3ccccc23)cc1,AC50,[10],2.75 µM (active)
CC(C)Cn1c(SCC(=O)NC(=O)Nc2ccc3c(c2)OCCO3)nc2ccccc2c1=O,IC50,[3],> 50 µM (not active)
O=S(=O)(c1ccc(Cl)cc1)N1CCCC(c2nc(-c3ccc(F)cc3)no2)C1 (stereo not drawn),IC50,Fatty acid synthase [7],5.59 µM (active)
same,IC50,Fatty acid synthase [8],6.27 µM (active)
O=C(O)c1cccnc1Sc1ccccc1,EC50,[6],> 260 µM (inactive)
CC(=O)Cn1c(=O)c2c(nc3n2CCCN3Cc2ccccc2)n(C)c1=O,EC50,cells [1],> 350 µM (not active)
same,EC50,cells [2],> 350 µM (not active)
CCn1c(=O)c(C(=O)NCc2ccccc2OC)c(O)c2ccccc21,AC50,[10],1.26 µM (active)
C=CCSc1nnc(-c2ccc([N+](=O)[O-])cc2)o1,IC50,[3],34.3 µM (not active)
COc1c(Br)cc(Br)cc1C(=O)O,EC50,[6],> 260 µM (inactive)
COC(=O)c1cccc(C(=O)N2CCCC(C(=O)c3ccccc3OC)C2)c1 (stereo not drawn),EC50,[6],> 260 µM (inactive)
CC(C=Cc1ccccc1)=NNS(=O)(=O)c1ccc([N+](=O)[O-])cc1,IC50,Fatty acid synthase [7],9.36 µM (active)
same,IC50,Fatty acid synthase [8],6.23 µM (active)
C[C@@H]1CN([C@H](C)CO)C(=O)c2cccc(NC(=O)NC3CCCCC3)c2O[C@@H]1CN(C)C(=O)Nc1ccc(C(F)(F)F)cc1,IC50,Fatty acid synthase [7],2.09 µM (active)
same,IC50,Fatty acid synthase [8],2.26 µM (active)
COc1ccc(C2=CC(=O)CC(c3ccc(F)cc3)C2)cn1 (stereo not drawn),EC50,[6],> 260 µM (inactive)
Cc1ccc(C(=O)N/C(=C\c2cn(S(=O)(=O)N(C)C)c3ccccc23)C(=O)N2CCCC2)cc1,IC50,Fatty acid synthase [7],1.58 µM (active)
same,IC50,Fatty acid synthase [8],1.23 µM (active)
COCCNC(=S)N/N=C/c1ccc(N2CCOCC2)cc1,EC50,[6],> 260 µM (inactive)
O=C(CN1CCN(S(=O)(=O)c2ccc(Cl)c(C(F)(F)F)c2)CC1)NC(=O)NC1CCCCC1,IC50,Fatty acid synthase [7],3.5 µM (active)
same,IC50,Fatty acid synthase [8],37.1 µM (inactive)
